Square brackets hold non-standard residues; d marks the D form. Peptide text beside a SMILES is read from it. dMet(O) = CS(=O)CC[C@@H](N)C(=O)O; Phe(ol) = N[C@H](CO)Cc1ccccc1
Legend:
[1] = system: human subject with postmenopausal osteoporosis or low bone mass; assay: treatment of human subject with osteoporosis, vertebral density by dual-energy photon absorptiometry; assay type: in vivo; details: 30 mg intravenously daily (substitutes at comparable levels), 28 days active / 28 days calcium, two years
Method: A human subject weighing about 60 kg (132 lbs), suffering from postmenopausal osteoporosis, is treated by a method of this invention. Specifically, for two years, the enkephalin-degrading enzyme inhibitor DL-3-mercapto-2-benzylpropanoylglycine is administered orally, in a cyclical regimen, where each cycle consists of an active period of 28 days during which a tablet containing 160 mg of said inhibitor is administered each day, followed by a non-active period of 28 days during which the subject receives a daily supplement of calcium (1,000 mg/day), with repeat of cycle.
A human subject weighing about 60 kg (132 lbs), suffering from postmenopausal osteoporosis, is treated by a method of this invention. Specifically, for two years, the compound H-Tyr-D-Ala-Gly-Phe-D-Leu-OH ("DADLE") is administered to the subject, in a cyclical regimen, where each cycle consists of an active period of 28 days during which a solution containing 30 mg of DADLE is administered intravenously every day, followed by a non-active period of 28 days during which the patient receives a daily supplement of calcium (1,000 mg/day), with repeat of cycle.
(§1) A human subject weighing about 60 kg (132 lbs), suffering from postmenopausal osteoporosis, is treated by a method of this invention. Specifically, for two years, an enkephalin of the formula Tyr-D-Cys(S-t-butylthioether)-Gly-Phe-Leu-Thr(O-t-butylether) ("BUBUC") is administered to the subject, in a cyclical regimen, where each cycle consists of an active period of 28 days during which a solution containing 30 mg of BUBUC is intravenously administered each day, followed by a non-active period of 28 days during which the patient receives a daily supplement of calcium (1,000 mg/day), with repeat of cycle.
as §1, with “years, the” for “years, an”, “enkephalin secretagogue Tyr-Arg^1,” for “enkephalin of the formula Tyr-D-Cys(S-t-butylthioether)-Gly-Phe-Leu-Thr(O-t-butylether) ("BUBUC")”, “of Tyr-Arg” for “of BUBUC”, “the subject” for “the patient”, “cycle. […]” for “cycle.”
A human subject weighing about 60 kg (132 lbs), suffering from postmenopausal osteoporosis, is treated by a method of this invention. Specifically, each day for five years, the subject is administered 3 tablets, comprised as follows.
A human subject weighing about 60 kg (132 lbs) is evaluated approximately four years after spontaneous menopause, and is found to have low bone mass. The subject is then treated by a method of this invention to treat osteoporosis. Specifically, once each month for five years, the subject is administered, via intravenous injection, 5 ml of a solution comprised as follows.

[2] = system: Rat osteoblast-like cells (ROS 17/2.8); assay: [3H]-thymidine incorporation, proliferation of osteoblast-like cells; assay type: cell-based; details: ROS 17/2.8, 18 hrs incubation, 2 hrs pulse
Source text: Stimulation of osteoblast-like cell proliferation can be measured according to several art-recognized in vitro models. One such model is described in European Patent Publication No. 384,731, by Rodan et al, published Aug. 29, 1990, which is incorporated herein by reference. (Applicants have modified this method by reducing regent volumes to one-quarter those described and by utilizing Dulbecco's Modified eagle's Medium (DMEM).) In this model, proliferation (division) of, for example, rat osteoblast-like cells (rat osteosarcoma (ROS) cells, rat calvaria cells, etc.) is observed by measuring the amount of radiolabeled thymidine ([^3 H]thymidine) incorporated by these cells. ([^3 H]thymidine is "incorporated" by cellular DNA being synthesized as a result of cell proliferation.) The greater the level of [^3 H]thymidine measured, the greater the amount of proliferation of the osteoblast cells.
More specifically, a test sample (comprised of a test compound and osteoblast-like cells) and a control sample (comprised of only osteoblast-like cells) are pulsed with [^3 H]thymidine. The amount of [^3 H]thymidine incorporated by the cells is measured using a direct beta counter.
Rat osteoblast-like cells (ROS 17/2.8) are plated at 4×10^3 cells/well in a 96-well plate in Dulbecco's Modified eagle's Medium supplemented with 2% (v/v) Fetal Bovine Serum, and incubated for 6 hrs. Control (serum-free) medium and test medium (test sample and serum-free medium) are then added to the cells and this combination is incubated for 18 hrs. The cells are then pulsed with [^3 H]-thymidine (1 μCi/well) for 2 hrs. The medium is then removed, the cells are harvested onto glass fibre filters and the amount of [^3 H]-thymidine (counts per minute per well) incorporated into DNA is then determined using a direct beta counter. Values for control groups are then compared to values for treated groups.
(§2) The compound H-Tyr-D-Ala-Gly-Phe-D-Leu-OH ("DADLE") is screened to determine whether it stimulates proliferation of osteoblast-like cells. […] The medium is then removed, the cells are harvested onto glass fibre filters, and the amount of ^3 H-thymidine (counts per minute per well) incorporated into DNA is determined using a direct beta counter. […]
as §2, with “Tyr-D-Cys(S-t-butylthioether)-Gly-Phe-Leu-Thr(O-t-butylether) ("BUBUC")” for “H-Tyr-D-Ala-Gly-Phe-D-Leu-OH ("DADLE")”

mu opioid receptor = mu opioid receptor (Cavia porcellus, UniProt A0ACM8Q262); assay: inhibition of [3H]DAGO binding, method of Goldstein et al.; design: species or system guinea pig; details: radioligand [3H]DAGO
mu opioid receptor, sequence (A0ACM8Q262 1-400): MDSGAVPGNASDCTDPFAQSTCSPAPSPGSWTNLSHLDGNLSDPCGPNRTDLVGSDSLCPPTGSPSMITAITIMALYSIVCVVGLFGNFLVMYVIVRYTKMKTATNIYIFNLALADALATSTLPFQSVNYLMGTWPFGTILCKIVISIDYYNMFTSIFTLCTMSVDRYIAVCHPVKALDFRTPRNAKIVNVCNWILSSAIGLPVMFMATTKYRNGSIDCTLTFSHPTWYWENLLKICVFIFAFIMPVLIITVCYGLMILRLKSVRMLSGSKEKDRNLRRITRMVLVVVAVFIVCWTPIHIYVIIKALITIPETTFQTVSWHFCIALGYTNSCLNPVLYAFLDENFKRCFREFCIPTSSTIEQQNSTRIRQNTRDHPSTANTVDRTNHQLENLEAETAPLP
Source text: Affinity for mu opioid receptors can be measured by any of several art-recognized in vitro models. One such model is described by A. Goldstein et al., "Multiple Opioid Receptors: Ligand Selectivity Profiles and Binding Site Signatures", 36 […] 265-272 (1989), which is incorporated herein by reference. According to this model, a test compound is screened for its ability to inhibit binding of a mu-selective radiolabeled ligand ("mu-selective radiolabeled ligand" refers to a radiolabeled compound that is known to have selective affinity for mu opioid receptors) to mu opioid receptor binding sites. More specifically, this in vitro model compares test samples (comprising a mu-selective radiolabeled ligand ("hot ligand"); the non-radiolabeled equivalent to the "hot ligand" ("cold ligand"); test compound at varying concentrations in each test sample; and mu opiate receptor material) and a control sample (comprising hot ligand; cold ligand; and mu opiate receptor material).
Following the protocol set forth by Goldstein et al., the samples are assayed for relative radioactivity.
In assessing a compound's in vitro affinity for mu opioid receptors according the method described by Goldstein et al., the mu-selective radiolabeled ligand (i.e., "hot ligand") is preferrably [^3 H]Tyr-D-Ala-Gly-N-methyl-Phe-Gly(ol) ("[^3 ]DAGO" or "hot DAGO"). […]

| Compound | density of vertebrae / bone mass [1] | other results |
| --- | --- | --- |
| CSCC[C@@H](NC(=O)[C@@H](N)Cc1ccc(O)cc1)C(=O)NCC(=O)N[C@@H](Cc1ccccc1)C(=O)N1CCC[C@H]1C(N)=O [H-Tyr-D-Met-Gly-Phe-Pro-NH2] (H-Y[dM]GFP-NH2) | substantially similar results |  |
| CC(C)C[C@H](NC(=O)[C@H](Cc1ccccc1)NC(=O)CNC(=O)[C@@H](COC(C)(C)C)NC(=O)[C@@H](N)Cc1ccc(O)cc1)C(=O)N[C@H](C(=O)O)[C@@H](C)O [H-Tyr-D-Ser(O-t-butylether)-Gly-Phe-Leu-Thr] | substantially similar results |  |
| C[C@@H](NC(=O)[C@@H](N)Cc1ccc(O)cc1)C(=O)NCC(=O)N(C)[C@@H](Cc1ccccc1)C(=O)N[C@H](CO)CC[S+](C)[O-] (stereo partly drawn) [H-Tyr-D-Ala-Gly-N-methyl-Phe-Met(sulfoxide)(ol)] | substantially similar results |  |
| CSCC[C@H](NC(=O)[C@H](Cc1ccccc1)NC(=O)[C@@H](C)NC(=O)[C@@H](N)Cc1ccc(O)cc1)C(N)=O [H-Tyr-D-Ala-Phe-Met-NH2] (H-Y[dA]FM-NH2) | substantially similar results |  |
| CSCC[C@H](NC(=O)[C@H](Cc1ccccc1)NC(=O)CNC(=O)[C@@H](C)NC(=O)[C@@H](N)Cc1ccc(O)cc1)C(N)=O [H-Tyr-D-Ala-Gly-Phe-Met-NH2] | substantially similar results |  |
| CC(C)C[C@@H](NC(=O)[C@H](Cc1ccccc1)NC(=O)CNC(=O)[C@@H](C)NC(=O)[C@@H](N)Cc1ccc(O)cc1)C(=O)O [DADLE, H-Tyr-D-Ala-Gly-Phe-D-Leu-OH] | an increase in bone mass | [3H]-thymidine incorporation (proliferation) vs control [2]: significantly stimulated proliferation of the osteoblast-like cells; in vitro mu opioid receptor affinity (IC50 ≤1000 times the IC50 of non-radiolabeled DAGO) (mu opioid receptor): significant in vitro mu opioid receptor affinity; density of vertebrae / bone mass ([1]; listed as H-Tyr-D-Ala-Gly-Phe-D-Leu): substantially similar results |
| CC(C)C[C@H](NC(=O)[C@H](Cc1ccccc1)NC(=O)CNC(=O)[C@@H](C)NC(=O)[C@@H](N)Cc1ccc(O)cc1)C(N)=O [H-Tyr-D-Ala-Gly-Phe-Leu-NH2] | substantially similar results |  |
| CC(C)C[C@H](NC(=O)[C@H](Cc1ccccc1)NC(=O)CNC(=O)[C@@H](COC(C)(C)C)NC(=O)[C@@H](N)Cc1ccc(O)cc1)C(=O)N[C@H](C(=O)O)[C@@H](C)OC(C)(C)C [H-Tyr-D-Ser(O-t-butylether)-Gly-Phe-Leu-Thr(O-t-butylether)] | substantially similar results |  |
| H-Tyr-D-Pen-Gly-Phe-Pen | substantially similar results |  |
| H-(2,6-dimethyl-Try)-D-Ala-NH-phenylpropyl | substantially similar results |  |
| C[S+]([O-])CC[C@@H](NC(=O)[C@@H](N)Cc1ccc(O)cc1)C(=O)NCC(=O)N[C@H](CO)Cc1ccccc1 (stereo partly drawn) [H-Tyr-D-Met(O)-Gly-Phe(ol)] (H-Y[dMet(O)]G[Phe(ol)]) | substantially similar results |  |

— patent publication US5403824A, “Methods for the treatment of osteoporosis” (The Procter & Gamble Company, priority 1993, dated 1995)
